Laboratory results from ChEMBL document CHEMBL4414627, “Ealamines A-H, a Series of Naphthylisoquinolines with the Rare 7,8'-Coupling Site, from the Congolese Liana Ancistrocladus ealaensis, Targeting Pancreatic Cancer Cells” (J Nat Prod, 2019).
Activity calls are given as the source filed them. The rule behind the calls is not given here.

Experiments:
PANC-1 [1] = experiment: Cytotoxicity against nutrient deprived human PANC1 cells assessed as induction of cell killing incubated for 24 hrs by WST-8 assay; assay type: functional
PANC-1 [2] = experiment: Cytotoxicity against DMEM cultured human PANC1 cells assessed as reduction in cell viability at PC50 incubated for 24 hrs by WST-8 assay; assay type: cell-based; settings: panc-1, 24 h
[3] = tested on: Trypanosoma brucei rhodesiense; experiment: Antiprotozoal activity against Trypanosoma brucei rhodesiense STIB900 trypomastigotes incubated for 72 hrs by Alamar blue staining-based fluorometric analysis; assay type: functional, organism-based
Leishmania donovani = experiment: Antiprotozoal activity against Leishmania donovani MHOM-ET-67/L82 axenic amastigotes incubated for 72 hrs by Alamar blue staining-based fluorometric analysis; assay type: functional, organism-based
Trypanosoma cruzi = experiment: Antiprotozoal activity against Trypanosoma cruzi Tulahuen C4 amastigotes infected in rat L6 cells incubated for 96 hrs by beta-galactosidase reporter gene assay; assay type: functional, organism-based
Plasmodium falciparum [4] = experiment: Antiprotozoal activity against chloroquine-sensitive Plasmodium falciparum NF54; assay type: functional, organism-based
[5] = Selectivity index, ratio of IC50 for rat L6 cells to IC50 for chloroquine and pyrimethamine-resistant erythrocytic stage of Plasmodium falciparum K1; assay type: toxicity; settings: for selectivity ratio: L6 cells, read-out: Ratio IC50
L6 = experiment: Cytotoxicity against rat L6 cells assessed as reduction in cell viability incubated for 72 hrs by Alamar blue staining-based fluorometric analysis
Plasmodium falciparum [6] = experiment: Antiprotozoal activity against chloroquine and pyrimethamine-resistant erythrocytic stage of Plasmodium falciparum K1 assessed as reduction in [3H]hypoxanthine incorporation preincubated for 48 hrs followed by [3H]hypoxanthine addition and measured after 24 hrs by liquid scintillation counting method; assay type: functional, organism-based
PANC-1 [7] = experiment: Induction of cell morphological changes in human PANC1 cells assessed as loss of membrane integrity at 12.5 uM incubated for 24 hrs in nutrient deprived medium by acridine orange/ethidium bromide double staining-based fluorescence/phase contrast mode based EVOS FL digital microscopic analysis; assay type: functional
PANC-1 [8] = experiment: Induction of cell morphological changes in nutrient deprived human PANC1 cells assessed as cell rounding at 25 uM incubated for 24 hrs by acridine orange/ethidium bromide double staining-based fluorescence/phase contrast mode based EVOS FL digital microscopic analysis; assay type: functional
PANC-1 [9] = experiment: Induction of cell morphological changes in nutrient deprived human PANC1 cells assessed as cell swelling at 25 uM incubated for 24 hrs by acridine orange/ethidium bromide double staining-based fluorescence/phase contrast mode based EVOS FL digital microscopic analysis; assay type: functional
PANC-1 [10] = experiment: Induction of cell death in nutrient deprived human PANC1 cells at 12.5 uM incubated for 24 hrs by acridine orange/ethidium bromide double staining-based fluorescence/phase contrast mode based EVOS FL digital microscopic analysis; assay type: functional
[11] = Selectivity index, ratio of IC50 for rat L6 cells to IC50 for chloroquine-sensitive Plasmodium falciparum NF54; assay type: toxicity; settings: read-out: Ratio IC50
PANC-1 [12] = experiment: Induction of cell morphological changes in nutrient deprived human PANC1 cells incubated for 24 hrs by acridine orange/ethidium bromide double staining-based fluorescence/phase contrast mode based EVOS FL digital microscopic analysis; assay type: functional
[13] = Trypanosoma brucei, STIB900, 72 h
[14] = Trypanosoma cruzi, Tulahuen C4, L6, 96 h
[15] = Leishmania donovani, MHOM-ET-67/L82, 72 h

## COc1cc(C[C@H]2C(=O)OC[C@@H]2Cc2ccc(OC)c(OC)c2)ccc1O [ARCTIGENIN]
PANC-1 [1]
  PC50: 0.8 µM
PANC-1 [2]
  Activity: Non-Toxic

## COc1c(-c2ccc(O)c3c(OC)cc(C)cc23)c(O)cc2c1[C@H](C)N[C@H](C)C2
PANC-1 [1]
  Activity: Dose-dependent effect
  PC50: 33.4 µM
PANC-1 [2]
  Activity: Non-Toxic

## COc1c(-c2ccc(OC)c3c(OC)cc(C)cc23)c(O)cc2c1[C@@H](C)N[C@H](C)C2 (single isomer, unassigned; atropisomer) [listing 1 of 2 here]
PANC-1 [1]
  PC50: 12.5 µM
[3]
  IC50: 9.8 µM
Leishmania donovani
  IC50: 170 µM
Trypanosoma cruzi
  IC50: 73.4 µM
Plasmodium falciparum [4]
  IC50: 6.3 µM
[5]
  Ratio IC50: 5.6
L6; l6
  IC50: 9.1 µM
Plasmodium falciparum [6]
  IC50: 1.6 µM
PANC-1 [2]
  Activity: Non-Toxic

## COc1c(-c2ccc(OC)c3c(OC)cc(C)cc23)c(O)cc2c1[C@@H](C)N[C@H](C)C2 [listing 1 of 2 here]
PANC-1 [1]
  PC50: 30.6 µM
[3]; [13]
  IC50: 7.8 µM
Leishmania donovani
  IC50: 53.4 µM
Trypanosoma cruzi; [14]
  IC50: 123 µM
Plasmodium falciparum [4]; Plasmodium falciparum, NF54
  IC50: 4.9 µM
[5]
  Ratio IC50: 15
L6; l6
  IC50: 20.9 µM
Plasmodium falciparum [6]; Plasmodium falciparum, K1
  IC50: 1.4 µM

## COc1c(-c2ccc(OC)c3c(OC)cc(C)cc23)c(O)cc2c1[C@@H](C)N[C@H](C)C2 [listing 2 of 2 here]
PANC-1 [1]
  Activity: Dose-dependent effect

## COc1cc2c(c(O)c1-c1ccc(OC)c3c(OC)cc(C)cc13)[C@@H](C)N[C@H](C)C2
PANC-1 [1]
  Activity: Dose-dependent effect
  PC50: 60.4 µM
[3]; [13]
  IC50: 106 µM
Leishmania donovani; [15]
  IC50: > 250 µM
Trypanosoma cruzi; [14]
  IC50: 225 µM
Plasmodium falciparum [4]; Plasmodium falciparum, NF54
  IC50: 22.2 µM
[5]
  selectivity ratio: > 30
L6; Rattus norvegicus, L6, 72 h
  IC50: > 250 µM
Plasmodium falciparum [6]; Plasmodium falciparum, K1
  IC50: 8.2 µM
PANC-1 [2]
  Activity: Non-Toxic

## COc1c(-c2ccc(O)c3c(OC)cc(C)cc23)c(O)cc2c1[C@@H](C)N[C@H](C)C2
PANC-1 [1]
  Activity: Dose-dependent effect
  PC50: 9.9 µM
[3]; [13]
  IC50: 9.4 µM
Leishmania donovani; [15]
  IC50: > 250 µM
Trypanosoma cruzi; [14]
  IC50: 102 µM
PANC-1 [7]
  Activity: Active
PANC-1 [8]
  Activity: 100%
PANC-1 [9]
  Activity: 100%
Plasmodium falciparum [4]; Plasmodium falciparum, NF54
  IC50: 0.84 µM
PANC-1 [10]
  Activity: Active
[11]
  selectivity ratio: 56.8
L6; Rattus norvegicus, L6, 72 h
  IC50: 47.7 µM
PANC-1 [12]
  Activity: Dose-dependent effect
PANC-1 [2]
  Activity: Non-Toxic

## COc1c2c(cc(O)c1-c1ccc(O)c3c(OC)cc(C)cc13)C[C@@H](C)N=C2C
PANC-1 [1]
  Activity: Dose-dependent effect
  PC50: 37.8 µM
PANC-1 [2]
  Activity: Non-Toxic

## COc1cc(O)c(-c2cc(-c3cc(-c4c(O)cc5c(c4OC)[C@H](C)N[C@H](C)C5)c4cc(C)cc(OC)c4c3O)c(O)c3c(OC)cc(C)cc23)c2c1[C@H](C)N[C@H](C)C2
[5]
  selectivity ratio: 1000
L6; Rattus norvegicus, L6, 72 h
  IC50: 6 µM
Plasmodium falciparum [6]; Plasmodium falciparum, K1
  IC50: 0.0063 µM

## COc1c(-c2ccc(OC)c3c(OC)cc(C)cc23)c(O)cc2c1[C@@H](C)N[C@H](C)C2 (single isomer, unassigned; atropisomer) [listing 2 of 2 here]
PANC-1 [1]
  Activity: Dose-dependent effect

## O=C(Cn1ccnc1[N+](=O)[O-])NCc1ccccc1 [BENZNIDAZOLE]
Trypanosoma cruzi; [14]
  IC50: 3.6 µM
